Tests used:
CCR2 = molecular target: T1, CCR2 (Homo sapiens, UniProt P41597); assay: MCP-1 Receptor Binding Assay in THP-1 Cells; conditions: THP-1 cells, 0.5 nM 125I labeled MCP-1, 2 hours at 30° C.; read-out: Inhibition of MCP-1 Binding IC50
T1 construct: host or cells: THP-1 cells
T1 sequence (P41597 1-360 isoform P41597-2): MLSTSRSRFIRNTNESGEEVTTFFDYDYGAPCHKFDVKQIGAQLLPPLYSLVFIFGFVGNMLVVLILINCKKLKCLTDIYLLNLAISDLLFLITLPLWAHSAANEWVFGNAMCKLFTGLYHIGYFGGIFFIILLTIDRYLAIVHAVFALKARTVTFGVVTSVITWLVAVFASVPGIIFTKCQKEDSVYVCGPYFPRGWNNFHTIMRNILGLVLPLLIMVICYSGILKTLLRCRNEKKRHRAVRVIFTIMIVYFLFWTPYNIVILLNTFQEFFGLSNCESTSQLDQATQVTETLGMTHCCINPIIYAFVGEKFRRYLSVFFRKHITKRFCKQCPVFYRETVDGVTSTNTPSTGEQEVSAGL
How it was run: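 Whole THP-1 cells incubated 2 h at 30° C with 0.5 nM 125I-MCP-1 and varying compound concentrations; bound radioactivity harvested on filters and counted by scintillation. Nonspecific binding with 1 μM cold MCP-1; IC50 for inhibition of binding versus vehicle.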

[1] = system: MCP-1 induced chemotaxis of THP-1 cells; assay: MCP-1 Induced Chemotaxis in THP-1 Cells; format: cell-based; conditions: Homo sapiens, MCP-1 0.01 μg/mL, 3 hours at 37° C., read-out: Inhibition of MCP-1 Induced Chemotaxis IC50
Description: MCP-1 induced chemotaxis was run in a 24-well chemotaxis chamber. MCP-1 (0.01 μg/mL) was added to the lower chamber and 100 μL of THP-1 cells (1×10^7 cell/mL) was added to the top chamber. Varying concentrations of test compound were added to the top and bottom chambers. Cells were allowed to chemotax for 3 hours at 37° C. and 5% CO2. An aliquot of the cells that had migrated to the bottom chamber was taken and counted then compared to vehicle.
Table 3 lists IC50 values for inhibition of MCP-1 induced chemotaxis.

[2] = system: MCP-1 induced calcium ion influx in THP-1 cells; assay: MCP-1 Induced Calcium Mobilization in THP-1 Cells; format: cell-based; conditions: Homo sapiens, THP-1, THP-1 cells, 0.2 μM MCP-1, FLIPR; read-out: Inhibition of MCP-1 Induced Calcium Ion Influx IC50
How it was run: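 Fluo-3-loaded (5 μM, 45 min) THP-1 cells preincubated 15 min with compound. Calcium change after 0.2 μM MCP-1 addition read by FLIPR relative to vehicle; IC50 values derived.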

Row | SMILES | IC50 (CCR2) [µM] | IC50 [1] [µM] | IC50 [2] [µM]
1 | O=C(/C=C/c1cc(F)c(F)c(F)c1)N1CCC(O)(C(O)CN2CCC(c3ccc(Cl)cc3)CC2)CC1 (stereo not drawn) [Compound 163] | 0.0002 | 0.005 | 0.12
2 | CS(=O)(=O)Nc1ccc2[nH]cc(C3CCN(CC(N)C4CCN(C(=O)C=Cc5cc(F)c(F)c(F)c5)CC4)CC3)c2c1 (stereo not drawn) [Compound 28, N-{3-[1-(2-amino-2-{1-[3-(3,4,5-trifluoro-phenyl)-acryloyl]-piperidin-4-yl}-ethyl)-piperidin-4-yl]-1H-indol-5-yl}-methanesulfonamide] | 0.25 | 0.37 | 0.31
3 | COc1ccc(C2CCN(CC(O)C3(O)CCN(C(=O)/C=C/c4ccc(F)c(F)c4)CC3)CC2)cc1 (stereo not drawn) [Compound 93] | 0.31 | 0.12 | 9.2
4 | O=C(/C=C/c1cc(F)cc(F)c1)N1CCC(O)(C(O)CN2CCC(c3ccc(Cl)cc3)CC2)CC1 (stereo not drawn) [Compound 164] | 0.05 | 0.002 | 0.06
5 | COc1ccc(C2CCN(CC(CO)C3CCN(C(=O)/C=C/c4ccc(Cl)c(Cl)c4)CC3)CC2)cc1 (stereo not drawn) [Compound 43] | 0.59 | 0.09 | 0.18
6 | O=C(/C=C/c1cc(F)cc(F)c1)N1CCC(O)(C(O)CN2CCC(c3ccc(F)cc3)CC2)CC1 (stereo not drawn) [Compound 130] | 0.1 | 0.19 | 2.4
7 | COc1ccc(C2CCN(CC(O)C3CCN(C(=O)/C=C/c4ccc(Cl)c(Cl)c4)CC3)CC2)cc1 (stereo not drawn) [Compound 14] | 0.14 | 0.15 | 0.003
8 | O=C(/C=C/c1cc(F)c(F)c(F)c1)N1CCC(O)(C(O)CN2CCC(c3c[nH]c4ccc(F)cc34)CC2)CC1 (stereo not drawn) [Compound 155] | 0.1 | 0.18 | 0.66
9 | COc1ccc(C2CCN(CC(O)C3CCN(C(=O)/C=C/c4cc(F)c(F)c(F)c4)CC3)CC2)cc1 (stereo not drawn) [Compound 13] | 0.01 | 0.06 | 0.24
10 | COc1ccc(C2CCN(CC(O)C3CCN(C(=O)/C=C/c4ccc(F)c(F)c4)CC3)CC2)cc1 (stereo not drawn) [Compound 32] | 0.07 | 0.1 | 0.08
11 | COc1ccc(C2CCN(CC(O)C3(O)CCN(C(=O)/C=C/c4ccc(Cl)c(Cl)c4)CC3)CC2)cc1 (stereo not drawn) [Compound 1] | 0.25 | 0.09 | 0.07
12 | COc1ccc(C2CCN(CC(O)C3CCN(C(=S)Nc4cc(F)cc(F)c4)CC3)CC2)cc1 (stereo not drawn) [Compound 107, 4-{1-hydroxy-2-[4-(4-methoxy-phenyl)-piperidin-1-yl]-ethyl}-piperidine-1-carbothioic acid (3,5-difluoro-phenyl)-amide] | 0.29 | 0.04 | 4.3
13 | O=C(/C=C/c1cc(F)c(F)c(F)c1)N1CCC(O)(C(O)CN2CCC(c3ccc(C(F)(F)F)cc3)CC2)CC1 (stereo not drawn) [Compound 136] | 0.14 | 0.15 | 0.21
14 | COc1ccc(C2CCN(CC(CO)C3CCN(C(=O)/C=C/c4cc(F)cc(F)c4)CC3)CC2)cc1 (stereo not drawn) [Compound 45] | 0.12 | 0.17 | 0.15
15 | O=C(/C=C/c1cc(F)c(F)c(F)c1)N1CCC(C(O)CN2CCC(c3nc4ccccc4[nH]3)CC2)CC1 (stereo not drawn) [Compound 86] | 0.08 | 0.05 | 0.07
16 | O=C(Nc1ccc(Cl)c(Cl)c1)N1CCC(O)(C(O)CN2CCC(c3c[nH]c4ccc(N5CCOCC5)cc34)CC2)CC1 (stereo not drawn) [Compound 181, 4-hydroxy-4-{1-hydroxy-2-[4-(5-morpholin-4-yl-1H-indol-3-yl)-piperidin-1-yl]-ethyl}-piperidine-1-carboxylic acid (3,4-dichloro-phenyl)-amide] | 0.27 | 0.18 | 2.1
17 | CSc1ccc(NC(=O)N2CCC(C(O)CN3CCC(c4c[nH]c5ncccc45)CC3)CC2)cc1 (stereo not drawn) [Compound 25, 4-{1-hydroxy-2-[4-(1H-pyrrolo[2,3-b]pyridin-3-yl)-piperidin-1-yl]-ethyl}-piperidine-1-carboxylic acid (4-methylsulfanyl-phenyl)-amide] | 0.81 | 0.64 | 1.5
18 | O=C(/C=C/c1ccc(F)c(F)c1)N1CCC(O)(C(O)CN2CCC(c3c[nH]c4ccc(F)cc34)CC2)CC1 (stereo not drawn) [Compound 156] | 0.12 | 0.36 | 4
19 | CS(=O)(=O)Nc1ccc2[nH]cc(C3CCN(CC(O)C4CCN(C(=O)/C=C/c5cc(F)c(F)c(F)c5)CC4)CC3)c2c1 (stereo not drawn) [Compound 27] | 0.01 | 0.01 | 0.008

Now from value to compound:

Row | IC50 (CCR2) [µM] | IC50 [1] [µM] | IC50 [2] [µM] | SMILES
20 | 0.37 | 0.21 | 0.04 | O=C(/C=C/c1ccc(F)c(F)c1)N1CCC(O)(C(O)CN2CCC(c3c[nH]c4ccccc34)CC2)CC1 (stereo not drawn) [Compound 78]
21 | 0.31 | 0.29 | 0.38 | O=C(O)C(CC1CCN(C(=O)C=Cc2ccc(Cl)c(Cl)c2)CC1)N1CCC(c2c[nH]c3ccccc23)CC1 (stereo not drawn) [Compound 60, 3-{1-[3-(3,4-dichloro-phenyl)-acryloyl]-piperidin-4-yl}-2-[4-(1H-indol-3-yl)-piperidin-1-yl]-propionic acid]
22 | 0.19 | 0.36 | 0.03 | O=C(/C=C/c1cccc(C(F)(F)F)c1)N1CCC(C(O)CN2CCC(c3c[nH]c4ncccc34)CC2)CC1 (stereo not drawn) [Compound 22]
23 | 0.03 | 0.03 | 0.007 | O=C(/C=C/c1cc(F)cc(F)c1)N1CCC(C(O)CN2CCC(c3c[nH]c4ccccc34)CC2)CC1 (stereo not drawn) [Compound 7]
24 | 0.15 | 0.27 | 0.4 | N=C(NC(=O)c1cc(F)cc(F)c1)N1CCC(C(O)CN2CCC(c3c[nH]c4ccccc34)CC2)CC1 (stereo not drawn) [Compound 10, 3,5-difluoro-N-[(4-{1-hydroxy-2-[4-(1H-indol-3-yl)-piperidin-1-yl]-ethyl}-piperidin-1-yl)-imino-methyl]-benzamide]
25 | 0.35 | 0.03 | 0.005 | O=C(/C=C/c1ccc(Cl)c(Cl)c1)N1CCC(O)(C(O)CN2CCC(c3c[nH]c4ccccc34)CC2)CC1 (stereo not drawn) [Compound 75]
26 | 0.13 | 0.19 | 0.03 | Cc1cccc(/C=C/C(=O)N2CCC(C(O)CN3CCC(c4c[nH]c5ncccc45)CC3)CC2)c1 (stereo not drawn) [Compound 19]
27 | 0.07 | 0.07 | 0.09 | COc1ccc(C2CCN(CC(O)C3CCN(C(=O)/C=C/c4cccc(C)c4)CC3)CC2)cc1 (stereo not drawn) [Compound 29]
28 | 0.05 | 0.06 | 0.22 | COc1ccc(C2CCN(CC(O)C3CCN(C(=O)/C=C/c4cccc(C(F)(F)F)c4)CC3)CC2)cc1 (stereo not drawn) [Compound 30]
29 | 0.15 | 0.04 | 0.006 | O=C(/C=C/c1ccc(Cl)c(Cl)c1)N1CCC(C(O)CN2CCC(c3nc4ccccc4[nH]3)CC2)CC1 (stereo not drawn) [Compound 85]
30 | 0.01 | 0.19 | 0.35 | Cc1cccc(/C=C/C(=O)N2CCC(C(O)CN3CCC(c4c[nH]c5ccccc45)CC3)CC2)c1 (stereo not drawn) [Compound 11]
31 | 0.04 | 0.02 | 0.007 | O=C(/C=C/c1ccc(Cl)c(Cl)c1)N1CCC(C(O)CN2CCC(c3c[nH]c4ccccc34)CC2)CC1 (stereo not drawn) [Compound 6]
32 | 0.05 | 0.02 | 0.48 | O=C(/C=C/c1cc(F)c(F)c(F)c1)N1CCC(C(O)CN2CCC(c3c[nH]c4ncccc34)CC2)CC1 (stereo not drawn) [Compound 21]

Source: patent US20070197590A1, “SUBSTITUTED DIPIPERIDINE CCR2 ANTAGONISTS” (priority 2006, published 2007)
